Series [1] is described as follows: Metabolic stability in human liver microsomes (HLM). It counts as in vitro ADME. As to conditions: 0.50 mg protein/mL, NADPH; for Clint: 1 μM compound; for half-life at 1 μM: both sexes, human, pooled human liver microsomes, pH 7.4, 1 μM compound. How it is done:
(§1) HLM Stability. Pooled HLM from adult male and female donors (Corning 452117) were used. Microsomal incubations were carried out in multi-well plates. Liver microsomal incubation medium consisted of PBS (100 mM, pH 7.4), MgCl2 (1 mM), and NADPH (1 nmM), with 0.50 mg of liver microsomal protein per mL. Control incubations were performed by replacing the NADPH-cofactor system with PBS. Test compounds (1 μM, final solvent concentration 1.0%) were incubated with microsomes at 37° C. with constant shaking, Six time points over 60 minutes were analyzed, with 60 μL aliquots of the reaction mixture being drawn at each time point. The reaction aliquots were stopped by adding 180 μL of cold (4° C.) acetonitrile containing 200 ng/mL tolbutamide and 200 ng/mL labetalol as internal standards (IS), followed by shaking for 10 minutes, and then protein sedimentation by centrifugation at 4,000 rpm for 20 minutes at 4° C. Supernatant samples (80 μL) were diluted with water (240 μL) and analyzed for parent compound remaining using a fit-for-purpose liquid chromatography-tandem mass spectrometry (LC-MS/MS) method.
(§2) Data Analysis. The elimination constant (kel), half-life (t1/2) and intrinsic clearance (Clint) were determined in a plot of […] versus time, using linear regression analysis.
Background: Microsomes from liver hold many membrane-bound enzymes, among them those of drug oxidation.

Series [2] in a line: Metabolic stability in Gottingen minipig liver microsomes (MPLM). As to conditions: pooled minipig liver microsomes, pH 7.4, 1 μM compound, 0.50 mg protein/mL, NADPH. The class given is in vitro ADME, Gottingen minipigs. How it is done: as §1, with “MPLM” for “HLM”, “Gottingen minipigs (Xenotech Z6000)” for “adult male and female donors (Corning 452117)”, “mM” for “mM,”, “mM),” for “nmM),”, “shaking.” for “shaking,”
as §2

Series [3] is described as follows: Metabolic stability in rat liver microsomes (RLM). As to conditions: male, Sprague Dawley, rat, pooled rat liver microsomes, pH 7.4, 1 μM compound, 0.50 mg protein/mL, NADPH. It counts as in vitro ADME, Sprague Dawley rats. How it is done: as §1, with “RLM” for “HLM”, “from” for “from adult”, “Sprague Dawley rats (XenoTech R1000)” for “and female donors (Corning 452117)”, “mM),” for “nmM),”, “shaking.” for “shaking,”
as §2

The nature of series [4]: Metabolic stability in mouse liver microsomes (MLM). It counts as in vitro ADME, CD-1 mice. As to conditions: male, CD-1, mouse, pooled mouse liver microsomes, pH 7.4, 1 μM compound, 0.50 mg protein/mL, NADPH. How it is done:
as §1, with “MLM” for “HLM”, “from” for “from adult”, “CD-1 mice (XenoTech M1000)” for “and female donors (Corning 452117)”, “mM),” for “nmM),”, “shaking.” for “shaking,”
Data Analysis. The elimination constant (kel), half-life (t1/2) and intrinsic clearance (Clint) were determined in a plot of ln(AUC) versus […], using linear regression analysis.

With `CNC1(c2ccccc2Cl)CCCCC1=O` (racemic) [racemic ketamine, ketamine], the Clint in series [1] was 25.5 μL/min/m. The half-life (in general, how long it takes for the measured level to halve) at 1 μM was 0.907 h in series [1], 0.107 h in series [2], 0.0933 h in series [3] and 0.257 h in series [4]. Besides, the microsomal CLint – broadly, the rate of metabolic loss divided by the concentration – at 1 μM turned out to be 218 µL/min/mg in series [2], 294 µL/min/mg in series [3] and 90.1 µL/min/mg in series [4].

In the case of `N[C@@]1(c2ccc(F)cc2)CCCCC1=O` [Compound 1R, (R)-2-amino-2-(4-fluorophenyl)cyclohexan-1-one], in series [1], the Clint is given as <9.6 μL/min/m and the half-life at 1 μM was > 2.42 h. Also, in series [3], the half-life at 1 μM is > 2.42 h and the microsomal CLint at 1 μM is < 9.6 µL/min/mg. For the same compound, in series [4], the half-life at 1 μM is > 2.42 h and the microsomal CLint at 1 μM was < 9.6 µL/min/mg.

For `N[C@]1(c2ccc(F)cc2)CCCCC1=O` [Compound 1S, (S)-2-amino-2-(4-fluorophenyl)cyclohexan-1-one], the Clint in series [1] is listed as <9.6 μL/min/m. Moreover, the half-life at 1 μM in series [1], in series [2], in series [3] and in series [4] was > 2.42 h throughout. The microsomal CLint at 1 μM in series [2], in series [3] and in series [4] was < 9.6 µL/min/mg in each case.

On to `CN[C@@]1(c2ccc(F)cc2)CCCCC1=O` [Compound 2R, (R)-2-(4-fluorophenyl)-2(methylamino)cyclohexan-1-one], for which, in series [1], the Clint is recorded as <9.6 μL/min/m. The half-life at 1 μM in series [1] is > 2.42 h; in series [2], 0.633 h; in series [3] it was 1.3 h; in series [4], 2.12 h. The microsomal CLint at 1 μM in series [2] was 36.5 µL/min/mg; in series [3], 17.8 µL/min/mg; in series [4] it was 10.9 µL/min/mg.

As to `CN[C@]1(c2ccc(F)cc2)CCCCC1=O` [Compound 2S, (S)-2-(4-fluorophenyl)-2-(methylamino)cyclohexan-1-one], the Clint in series [1] is recorded as <9.6 μL/min/m. In addition, the half-life at 1 μM in series [1] is > 2.42 h; in series [2], 0.515 h; in series [3], 1.01 h; in series [4] it was 1.79 h. Besides, the values for the intrinsic clearance (microsomal CLint) at 1 μM in series [2], in series [3] and in series [4] were 44.9 µL/min/mg, 22.8 µL/min/mg and 12.9 µL/min/mg, respectively.

In the case of `N[C@]1(c2cccc(F)c2)CCCCC1=O` [Compound 3S], the Clint in series [1] was <9.6 μL/min/m. Further, the half-life at 1 μM was > 2.42 h in series [1], > 2.42 h in series [2], 1.58 h in series [3] and 2.05 h in series [4]. Moreover, the microsomal CLint at 1 μM is < 9.6 µL/min/mg in series [2], 14.6 µL/min/mg in series [3] and 11.3 µL/min/mg in series [4].

The values above are taken from patent publication US20240300886A1, “ARYLCYCLOHEXYLAMINE DERIVATIVES AND THEIR USE IN THE TREATMENT OF PSYCHIATRIC DISORDERS” (GILGAMESH PHARMACEUTICALS, INC., priority 2021, published 2024).
